Experimental findings from US20180021467A1, “METHOD OF BLOCKING PERCEPTION OF MALODOR” (Monell Chemical Senses Center, priority 2015, published 2018) are described below.

This assay deals with T1, TAAR5 (Homo sapiens, UniProt O14804).
T1 sequence (O14804 1-337): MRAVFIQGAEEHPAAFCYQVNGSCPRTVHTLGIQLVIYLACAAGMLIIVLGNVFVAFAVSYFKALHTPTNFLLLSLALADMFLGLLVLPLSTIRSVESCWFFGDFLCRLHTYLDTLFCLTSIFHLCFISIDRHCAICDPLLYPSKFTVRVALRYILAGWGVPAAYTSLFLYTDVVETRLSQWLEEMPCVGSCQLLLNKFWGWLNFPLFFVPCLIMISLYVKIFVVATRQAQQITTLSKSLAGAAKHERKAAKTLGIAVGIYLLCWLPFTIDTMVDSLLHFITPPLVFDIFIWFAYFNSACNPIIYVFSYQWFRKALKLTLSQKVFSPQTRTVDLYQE
The experiment in a line: Antagonist screen of odor library on TAAR5 with agonist TMA (Dual-Glo luciferase assay, Hana3A cells). Type of assay: cell-based. Set-up: TAAR open reading frames were amplified from pooled human genomic DNA using Phusion polymerase and subcloned into a pCI expression vector; Rho tag (first 20 residues of human rhodopsin); expressed in transfected cells; host or cells: Hana3A cells. To be noted: inhibition of TMA/TAAR5 response; test odor at 30 μM; TMA at EC80; read-out: Percent Inhibition. How it is done: We screened a TAAR of interest, TAAR5, with the agonist TMA added at the EC80 concentration, against a proprietary small-molecule library to identify antagonists. TAAR open reading frames were amplified from pooled human genomic DNA using Phusion polymerase and subcloned into a pCI expression vector (Promega) containing the first 20 residues of human rhodopsin (Rho tag). […] Hana3A cells were transfected with 5 ng/well of RTP1S, 5 ng/well of pRL-SV40, 10 ng/well of CRE-luciferase, 2.5 ng/well of M3, and 5 ng/well of odorant receptor. 1M odorant stocks were diluted in DMSO. 24 hours following transfection, transfection media was removed and replaced with the appropriate concentration of odor diluted from the 1M stocks in CD293 (Gibco). Four hours following odor stimulation luminescence was measured using a Synergy 2 plate reader (Biotek). All luminescence values were divided by the Renilla Luciferase activity to control for transfection efficiency in a given well.
We completed an antagonist screen of a proprietary library of odors, including the 52 odorous compounds identified in FIG. 4 at a concentration of 30 μM.
In the case of `O=C(Cc1ccccc1)Cc1ccccc1` [1,3-Diphenyl-2-propanone], the inhibition at 30 µM came to 73.1%.
As for `CCCCCCCCCCCCCCO` [1-Tetradecanol], the inhibition at 30 µM was determined as 54.1%.
Next, `OC1CSC(O)CS1` (centres unmarked) [2,5-Dihydroxy-1,4-dithiane]: 67.9%; `CC(C=O)Cc1ccc2c(c1)OCO2` (centres unmarked) [2-Methyl-3-(3,4-methylenedioxyphenyl)-propanal]: 50.1%; `C/C=C(\C=O)c1ccccc1` [2-Phenyl-2-butenal]: 68.9%.
With `CCCCCCC/C=C/C=O` [2-decenal], the inhibition at 30 µM was determined as 66.4%.
In the case of `CC(C)CCCC(C)CCO` (centres unmarked) [3,7-Dimethyl-1-octanol], the inhibition at 30 µM came to 57.1%.
Turning to `CSCCC=O` [3-(Methylthio)propionaldehyde], the inhibition at 30 µM worked out at 54.5%.
With `CCCCCC/C=C/C(C)=O` [3-Decen-2-one], the inhibition at 30 µM is 72.5%.
Next, `C=CCN=C=S` [Allyl isothiocyanate]: 77.4%; `CCCCCC(C=O)=Cc1ccccc1` [Alpha-Amylcinnamaldehyde]: 75.8%; `C[C@@]12C=CC[C@H]1[C@@H]1CCC3=CC(=O)CC[C@]3(C)[C@H]1CC2` [Androstadienone, Androsta-4,16-dien-3-one]: 76%.
`O=C(OCc1ccccc1)c1ccccc1` [Benzyl benzoate]: the inhibition at 30 µM was 83.9%.
For the compound `c1ccc(CSSCc2ccccc2)cc1` [Benzyl disulfide], the inhibition at 30 µM came to 81%.
Turning to `SCc1ccccc1` [Benzyl mercaptan], the inhibition at 30 µM was 75.8%.
Next, `O=C(Cc1ccccc1)OCc1ccccc1` [Benzyl phenylacetate]: 72.7%; `O=C(OCc1ccccc1)c1ccccc1O` [Benzyl salicylate]: 74.2%; `Cc1ccc(C(C)C)cc1O` [Carvacrol]: 52.2%.
As to `O=CC1CCCCCC1` [Cycloheptanecarbaldehyde], the inhibition at 30 µM is 64.4%.
For `CC1COCc2cc3c(cc21)C(C)(C)C(C)C3(C)C` (centres unmarked) [Galaxolide], the inhibition at 30 µM was determined as 71.2%.
Next, `CCCCCC=O` [Hexanal]: 69.4%; `O=C1CCCCCCC/C=C/CCCCCCO1` [Isoambrettolide]: 78.7%; `CC(C)COC(=O)c1ccccc1` [Isobutyl benzoate]: 63.3%.
As for `CCCCCCCCCCCC(=O)O` [Lauric acid], the inhibition at 30 µM came to 86%.
Consider `COc1ccc2cc(CCC(C)=O)ccc2c1` [Nabumetone], for which the inhibition at 30 µM was 73.8%.
Turning to `O=C(OCCc1ccccc1)c1ccco1` [Phenethyl 2-furoate], the inhibition at 30 µM stood at 59.6%.
Next, `Nc1ccccc1C(=O)OCCc1ccccc1` [Phenethyl anthranilate]: 92.8%; `O=C(Cc1ccccc1)OCCc1ccccc1` [Phenethyl phenylacetate]: 88.9%.
In the case of `O=C(OCCc1ccccc1)c1ccccc1O` [Phenethyl salicylate], the inhibition at 30 µM turned out to be 85%.
Regarding `O=C1CCCCCCCCCCCCCCO1` [Thibetolide], the inhibition at 30 µM came out at 81%.
As to `CC/C=C/CC/C=C/C=O` [Trans, trans-2,6-Nonadienal], the inhibition at 30 µM worked out at 71.4%.
For `COC(=O)c1ccccc1/N=C/CC(C)CCCC(C)(C)O` (centres unmarked) [aurantiol], the inhibition at 30 µM worked out at 79.6%.
`OCc1ccccc1` [benzyl alcohol]: the inhibition at 30 µM was 62.5%.
For the compound `CC/C=C\CCC=O` [cis-4-Heptenal], the inhibition at 30 µM was 61.5%.
Next, `CCc1occc(=O)c1O` [ethyl maltol, 2-Ethyl-3-hydroxy-4H-pyran-4-one]: 72.5%; `CC(C)=CCC/C(C)=C/CO` [geraniol]: 81.3%; `CC(=O)C1(C)CC2=C(CCCC2(C)C)CC1C` (centres unmarked) [iso E super, isocyclemone E]: 69.6%.
`CCCCCCCCCCCCCC(=O)O` [myristic acid]: the inhibition at 30 µM turned out to be 59.1%.

For orientation: inhibition means how much of the control response was suppressed.
